{
  "source": "patent US12042564B2",
  "about": "“Therapeutic solid dosage forms” (CYBIN UK LTD, priority 2020, dated 2024)",
  "key": {"[1]": {"tested_on": "human liver mitochondrial fraction", "assay": "Intrinsic clearance and half-life in human liver mitochondrial fraction", "format": "in vitro ADME", "conditions": "0.5 mg/mL human liver mitochondrial fraction, 1 μM test compounds", "source_text": "Use of Liver Mitochondrial Fraction to Model Human Metabolism of Deuterated DMT"}, "[2]": {"assay": "Initial solubility test of DMT fumarate in aqueous vehicles", "format": "physicochemical", "procedure": "Solubility of DMT fumarate was assessed at a concentration of 10 mg/ml in a small selection of aqueous vehicles (water, saline, 20 mM phosphate buffer and a combination of buffer and saline).\nPhosphate buffer (100 ml) was prepared using 219.53 mg of the dibasic form [HPO4][Na]2 with 183.7 mg of the monobasic form [H2PO4]Na, both dihydrate salts. The solution was adjusted to pH 7.0 with addition of NaOH (1 M) and then made to volume. 10 ml of a 10 mg/ml formulation was prepared.\nTo prepare this, sodium chloride was first dissolved in water to produce the saline solution (100 ml, 0.45% w/v). The phosphate salts, in the quantities described above, were then dissolved in the saline solution and the pH was adjusted using NaOH (1 M).\nThe pH of these solutions was in the range 3-4."}, "[3]": {"conditions": "cited from earlier work"}, "[4]": {"assay": "Plasma IAA metabolite levels after oral dosing in rats", "conditions": "for Estimated IAA Concentration / Estimated IAA Concentration, Mean: rat plasma, PO Dose (25 mg/kg); for Estimated IAA Concentration: individual animal; for Estimated IAA Concentration, Mean: mean of animals"}, "[5]": {"assay": "Plasma pharmacokinetics of test compound after oral dosing in rats", "conditions": "rat plasma; for Determined Concentration of test compound in plasma / Determined Concentration of test compound in plasma, Mean: oral dosing; for Determined Concentration of test compound in plasma: individual animal; for Determined Concentration of test compound in plasma, Mean: mean of 3 animals"}, "[6]": {"assay": "Solubility of DMT fumarate at different pH values in Britton-Robinson buffer", "conditions": "before pH adjustment"}},
  "note": "“And” between values parts separate entries of the source, which are not always exact repeats. Equal values may be shown once.",
  "data": [
    {"smiles": "CN(C)CCc1c[nH]c2ccccc12.O=C(O)/C=C/C(=O)O", "note": "[SPL026, N,N-dimethyltryptamine (DMT) fumarate salt]", "values": [
      {"measurement": "Half-life (min) R1", "setting": "[1]; 5 μM Serotonin and Benzylamine controls, replicate 1", "result": 8.8, "unit": "min"},
      {"measurement": "Half-life (min) Mean", "setting": "[1]; 5 μM controls, mean of replicates", "result": 8.3, "unit": "min"},
      {"measurement": "Half-life (min) R3", "setting": "[1]; 5 μM controls, replicate 3", "result": 7.6, "unit": "min"},
      {"measurement": "Half-life (min) R4", "setting": "[1]; 5 μM controls, replicate 4", "result": 8.3, "unit": "min"},
      {"measurement": "pH of these solutions", "setting": "[2]; 10 mg/ml in aqueous vehicles", "result": "3-4"},
      {"measurement": "Solubility at a concentration of 10 mg/ml in aqueous vehicles", "setting": "[2]; water, saline, 20 mM phosphate buffer, buffer and saline", "result": "readily soluble"},
      {"measurement": "predicted half-life in humans", "setting": "[3]; humans", "result": 5, "unit": "min"},
      {"measurement": "duration of action", "setting": "[3]; psychedelic effect", "result": "under 20 minutes"},
      {"measurement": "Mean IAA Cmax", "setting": "[4]; rat plasma IAA (semi quantified) after 25 mg/kg PO of the compound", "result": 9.204, "unit": "ng/mL"},
      {"measurement": "Mean IAA tmax", "setting": "[4]; rat plasma IAA after 25 mg/kg PO of the compound", "result": 30, "unit": "min"},
      {"measurement": "Estimated IAA Concentration", "setting": "[4]; 1 min", "result": "BLQ"},
      {"measurement": "Estimated IAA Concentration, Mean", "setting": "[4]; 1 min", "result": "BLQ"},
      {"measurement": "Estimated IAA Concentration", "setting": "[4]; 5 min, fumarate salt, 25 mg/kg", "result": "0.549 ng/mL and 1.33 ng/mL and 1.64 ng/mL"},
      {"measurement": "Estimated IAA Concentration, Mean", "setting": "[4]; 5 min", "result": 1.171, "unit": "ng/mL"},
      {"measurement": "Estimated IAA Concentration", "setting": "[4]; 10 min, fumarate salt, 25 mg/kg", "result": "1.08 ng/mL and 2.58 ng/mL and 4.39 ng/mL"},
      {"measurement": "Estimated IAA Concentration, Mean", "setting": "[4]; 10 min", "result": 2.683, "unit": "ng/mL"},
      {"measurement": "Estimated IAA Concentration", "setting": "[4]; 15 min, fumarate salt, 25 mg/kg", "result": "1.82 ng/mL and 5.55 ng/mL and 6.09 ng/mL"},
      {"measurement": "Estimated IAA Concentration, Mean", "setting": "[4]; 15 min", "result": 4.487, "unit": "ng/mL"},
      {"measurement": "Estimated IAA Concentration", "setting": "[4]; 30 min, fumarate salt, 25 mg/kg", "result": "7.08 ng/mL and 11.8 ng/mL and 8.88 ng/mL"},
      {"measurement": "Estimated IAA Concentration, Mean", "setting": "[4]; 30 min", "result": 9.245, "unit": "ng/mL"},
      {"measurement": "Estimated IAA Concentration", "setting": "[4]; 45 min, fumarate salt, 25 mg/kg", "result": "5.10 ng/mL and 6.44 ng/mL and 9.98 ng/mL"},
      {"measurement": "Estimated IAA Concentration, Mean", "setting": "[4]; 45 min", "result": 7.174, "unit": "ng/mL"},
      {"measurement": "Estimated IAA Concentration", "setting": "[4]; 60 min, fumarate salt, 25 mg/kg", "result": "6.18 ng/mL and 9.74 ng/mL and 11.7 ng/mL"},
      {"measurement": "Estimated IAA Concentration, Mean", "setting": "[4]; 60 min", "result": 9.204, "unit": "ng/mL"},
      {"measurement": "Estimated IAA Concentration", "setting": "[4]; 120 min, fumarate salt, 25 mg/kg", "result": "7.40 ng/mL and 7.70 ng/mL and 8.67 ng/mL"},
      {"measurement": "Estimated IAA Concentration, Mean", "setting": "[4]; 120 min", "result": 7.924, "unit": "ng/mL"},
      {"measurement": "Estimated IAA Concentration", "setting": "[4]; 180 min, fumarate salt, 25 mg/kg", "result": "4.34 ng/mL and 2.53 ng/mL and 3.08 ng/mL"},
      {"measurement": "Estimated IAA Concentration, Mean", "setting": "[4]; 180 min", "result": 3.316, "unit": "ng/mL"},
      {"measurement": "Estimated IAA Concentration", "setting": "[4]; Predose", "result": "BLQ"},
      {"measurement": "Estimated IAA Concentration, Mean", "setting": "[4]; Predose", "result": "BLQ"},
      {"measurement": "mean Cmax", "setting": "[5]; 25 mg/kg single oral gavage", "result": 27.9, "unit": "ng/mL"},
      {"measurement": "Determined Concentration of test compound in plasma", "setting": "[5]; 1 min, fumarate salt", "result": "BLQ (Below the lower limit of quantification 0.310 ng/mL) (2×) and 0.391 ng/mL"},
      {"measurement": "Determined Concentration of test compound in plasma, Mean", "setting": "[5]; 1 min", "result": "<0.3", "unit": "ng/mL"},
      {"measurement": "Determined Concentration of test compound in plasma", "setting": "[5]; 5 min, fumarate salt", "result": "BLQ (Below the lower limit of quantification 0.310 ng/mL) (2×) and 0.590 ng/mL"},
      {"measurement": "Determined Concentration of test compound in plasma, Mean", "setting": "[5]; 5 min", "result": "<0.4", "unit": "ng/mL"},
      {"measurement": "Determined Concentration of test compound in plasma", "setting": "[5]; 10 min, fumarate salt", "result": "BLQ (Below the lower limit of quantification 0.310 ng/mL) and 4.06 ng/mL and 20.7 ng/mL"},
      {"measurement": "Determined Concentration of test compound in plasma, Mean", "setting": "[5]; 10 min", "result": "<8.4", "unit": "ng/mL"},
      {"measurement": "Determined Concentration of test compound in plasma", "setting": "[5]; 15 min, fumarate salt", "result": "0.763 ng/mL and 19.9 ng/mL and 25.7 ng/mL"},
      {"measurement": "Determined Concentration of test compound in plasma, Mean", "setting": "[5]; 15 min", "result": 15.5, "unit": "ng/mL"},
      {"measurement": "Determined Concentration of test compound in plasma", "setting": "[5]; 30 min, fumarate salt", "result": "7.77 ng/mL and 25.2 ng/mL and 29.5 ng/mL"},
      {"measurement": "Determined Concentration of test compound in plasma, Mean", "setting": "[5]; 30 min", "result": 20.8, "unit": "ng/mL"},
      {"measurement": "Determined Concentration of test compound in plasma", "setting": "[5]; 45 min, fumarate salt", "result": "18.0 ng/mL and 18.5 ng/mL and 28.6 ng/mL"},
      {"measurement": "Determined Concentration of test compound in plasma, Mean", "setting": "[5]; 45 min", "result": 21.7, "unit": "ng/mL"},
      {"measurement": "Determined Concentration of test compound in plasma", "setting": "[5]; 60 min, fumarate salt", "result": "16.9 ng/mL and 31.6 ng/mL and 34.1 ng/mL"},
      {"measurement": "Determined Concentration of test compound in plasma, Mean", "setting": "[5]; 60 min", "result": 27.5, "unit": "ng/mL"},
      {"measurement": "Determined Concentration of test compound in plasma", "setting": "[5]; 120 min, fumarate salt", "result": "13.7 ng/mL and 11.7 ng/mL and 16.9 ng/mL"},
      {"measurement": "Determined Concentration of test compound in plasma, Mean", "setting": "[5]; 120 min", "result": 14.1, "unit": "ng/mL"},
      {"measurement": "Determined Concentration of test compound in plasma", "setting": "[5]; 180 min, fumarate salt", "result": "5.83 ng/mL and 2.57 ng/mL and 2.45 ng/mL"},
      {"measurement": "Determined Concentration of test compound in plasma, Mean", "setting": "[5]; 180 min", "result": 3.6, "unit": "ng/mL"},
      {"measurement": "Determined Concentration of test compound in plasma", "setting": "[5]; Predose", "result": "BLQ (Below the lower limit of quantification 0.310 ng/mL)"},
      {"measurement": "Determined Concentration of test compound in plasma, Mean", "setting": "[5]; Predose", "result": "BLQ (Below the lower limit of quantification 0.310 ng/mL)"},
      {"measurement": "dissolution at 20 mg/ml in Britton-Robinson buffer solution", "setting": "[6]", "result": "very soluble"}
    ]}
  ]
}
